Experimental data taken from patent publication US20100113517A1, “METHOD FOR THE TREATMENT OF FABRY DISEASE USING PHARMACOLOGICAL CHAPERONES” (AMICUS THERAPEUTICS, INC., priority 2007, published 2010).
Structures can show the parent of a compound that is named as a salt.

Legend:
[1] = including peripheral neuropathy and severe gastrointestinal effects; even at 150 mg/day; cited from earlier work
[2] = target: T1, human mutant α-Gal A (R301Q) (Homo sapiens, UniProt P06280, R301Q); assay: α-Gal A (GLA) enzyme activity in tissue lysates of R301Q Tg/KO mice; assay type: in vivo; conditions: 4 weeks
T1 construct: Tissue lysates were prepared by homogenizing about 50 mg tissue in assay buffer; from tissue; host or cells: heart, kidney, skin, liver and spleen of R301Q Tg/KO mice (human transgene, mouse α-Gal A knocked out)
T1 sequence (P06280 32-429 R301Q): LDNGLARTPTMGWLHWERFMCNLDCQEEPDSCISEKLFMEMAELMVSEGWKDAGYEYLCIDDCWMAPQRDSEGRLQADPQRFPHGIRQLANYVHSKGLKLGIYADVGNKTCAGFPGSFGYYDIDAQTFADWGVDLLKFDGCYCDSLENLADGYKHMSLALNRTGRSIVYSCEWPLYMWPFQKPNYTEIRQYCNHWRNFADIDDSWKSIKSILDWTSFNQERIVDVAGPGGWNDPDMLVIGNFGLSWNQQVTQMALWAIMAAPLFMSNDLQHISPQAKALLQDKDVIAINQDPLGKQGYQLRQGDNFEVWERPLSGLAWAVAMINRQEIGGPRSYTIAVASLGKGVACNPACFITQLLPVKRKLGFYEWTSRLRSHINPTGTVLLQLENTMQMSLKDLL
Description: Transgenic mice that exclusively express human mutant α-Gal A (R301Q) in an α-Gal A knock-out background (TgM/KO mice) were established and evaluated. This Example serves as a biochemical model to study and evaluate pharmacological chaperone therapy for Fabry disease, which is specific for those missense mutations that cause misfolding of α-Gal A.
Mice. Fabry R301Q Tg/KO mice were a gift from Dr. Robert Desnick. Male C57BL/6 mice were purchased from Taconic Farms, Germantown, N.Y. and housed in wire cages at 4 mice per cage. All studies were conducted at 8 weeks of age and conducted under strict adherence to IACUC guidelines.
Drug Administration. […] After dosing, indicated tissues were harvested and treated as described below.
Enzyme activity assay. After dosing, indicated tissues were harvested and frozen. Tissue lysates were prepared by homogenizing about 50 mg tissue in assay buffer. 2.5 μL lysate was combined with 17.5 μL of the assay buffer and 50 μL of the respective substrate solution (same as detailed in sections above). Reaction mixtures were then incubated at 37° C. for 1 hr. Afterward, 70 μL stop solution (0.4 M glycine, pH 10.8) was added, and fluorescence was read on a Victor plate reader at 355 nm excitation and 460 nm emission. Enzyme activity in the lysates was background subtracted, and normalized for protein concentration using the MicroBCA Protein Assay Kit (Pierce). A 4-MU standard curve was run (same as detailed in sections above) for conversion of fluorescence data to absolute enzyme activity expressed as nmoles/mg protein/hr or further normalized to % of untreated activity.

GL-3 = GL-3 analysis from mouse tissues (LC-MS/MS); assay type: in vivo; conditions: male R301Q Tg/KO mice, 30 mg/kg daily per os, 4 weeks
Description: Drug Administration. […] For the GL-3 assay, two groups of 6-7 male […] After dosing, indicated tissues were harvested and treated as described below. GL-3 analysis from mouse tissues. Tissue samples were washed free of blood, weighed and homogenized with a solvent system in a FastPrep® system. Homogenate was then extracted using Solid Phase Extraction on a C18 cartridge. The eluent was evaporated and reconstituted prior to injection onto a LC/MS system. Nine GL3 isoforms were measured using positive ESI-MS/MS. LC separation was achieved on a Zorbax C18 column.

[3] = male R301Q Tg/KO mice, 30 mg/kg daily oral gavage, vs. untreated

| increase in mutant GLA activity, heart [2, 3] | increase in mutant GLA activity, kidney [2, 3] | increase in mutant GLA activity, liver [2, 3] | increase in mutant GLA activity, skin [2, 3] | increase in mutant GLA activity, spleen [2, 3] | increase in mutant GLA activity, all treated tissues ([2]; male and female R301Q Tg/KO mice, 30 mg/kg/day in drinking water) | SMILES | adverse events [1] | GL-3 levels, kidney tissue (GL-3) | reduction of GL-3 levels, heart tissue (GL-3) | reduction of GL-3 levels, skin tissue (GL-3) |
| --- | --- | --- | --- | --- | --- | --- | --- | --- | --- | --- |
| – | – | – | – | – | – | CCCCN1C[C@H](O)[C@@H](O)[C@H](O)[C@H]1CO [NB-DNJ] | numerous adverse events | – | – | – |
| 11±0.1 -fold | 5.5±0.3 -fold | 3±0.02 -fold | 6.2±0.7 -fold | 5±0.1 -fold | comparable increases | OCC1NCC(O)C(O)C1O (stereo not shown) [DGJ HCl, migalastat hydrochloride] | – | trend towards reduction, but did not reach statistical significance | 1.6 -fold | 2.2 -fold |
